The test system of assay [1] is GPR24. The experiment in a line: Cell-based cAMP for Gi coupled target GPCRs, co-transfection with signal enhancer TSHR-A623I. The arrangement: species or system human. The following applies: FIG. 1; for cAMP production: cells co-transfected with TSHR-A623I, in the presence of TSH; for decrease in cAMP production compared to TSHR-A623I with endogenous GPR24 (GPR24 wt): co-transfected with TSHR-A623I. The text has this:
(§1) A Gi coupled receptor is known to inhibit adenylyl cyclase, and, therefore, decrease the level of cAMP production, which can make assessment of cAMP levels challenging. An effective technique in measuring the decrease in production of cAMP as an indication of constitutive activation of a receptor that predominantly couples Gi upon activation can be accomplished by co-transfecting a signal enhancer, e.g., a non-endogenous, constitutively activated receptor that predominantly couples with Gs upon activation (e.g., TSHR-A623I, disclosed below), with the Gi linked GPCR (such a technique is exemplified herein with the Gi coupled receptor, GPR24). As is apparent, constitutive activation of a Gs coupled receptor can be determined based upon an increase in production of cAMP. Constitutive activation of a Gi coupled receptor leads to a decrease in production cAMP. Thus, the co-transfection approach is intended to advantageously exploit these “opposite” affects. For example, co-transfection of a non-endogenous, constitutively activated Gs coupled receptor (the “signal enhancer”) with the endogenous Gi coupled receptor (the “target receptor”) provides a baseline cAMP signal (i.e., although the Gi coupled receptor will decrease cAMP levels, this “decrease” will be relative to the substantial increase in cAMP levels established by constitutively activated Gs coupled signal enhancer). By then co-transfecting the signal enhancer with a constitutively activated version of the target receptor, cAMP would be expected to further decrease (relative to base line) due to the increased functional activity of the Gi target (i.e., which decreases cAMP).
(§2) TSHR is a Gs coupled GPCR that causes the accumulation of cAMP upon activation. TSHR was constitutively activated by mutating amino acid residue 623 (i.e., changing an alanine residue to an isoleucine residue). See, SEQ.ID.NO.:402 for nucleic acid sequence and SEQ.ID.NO.:403 for deduced amino acid sequence. A Gi coupled receptor is expected to inhibit adenylyl cyclase, and, therefore, decrease the level of cAMP production, which can make assessment of cAMP levels challenging. An effective technique for measuring the decrease in production of cAMP as an indication of constitutive activation of a Gi coupled receptor can be accomplished by co-transfecting, most preferably, non-endogenous, constitutively activated TSHR (TSHR-A623I) (or an endogenous, constitutively active Gs coupled receptor) as a “signal enhancer” with a Gi linked target GPCR, such as GPR24, to establish a baseline level of cAMP. Upon creating a non-endogenous version of the Gi coupled receptor, this non-endogenous version of the target GPCR is then co-transfected with the signal enhancer, and it is this material that can be used for screening. We utilized such approach to effectively generate a signal when a cAMP assay is used; this approach is preferably used in the direct identification of candidate compounds against Gi coupled receptors. It is noted that for a Gi coupled GPCR, when this approach is used, an inverse agonist of the target GPCR will increase the cAMP signal and an agonist will decrease the cAMP signal.
(§3) On day one, 2×10^4 Hek-293 and Hek-293T cells/well were plated out. On day two, two reaction tubes were prepared (the proportions to follow for each tube are per plate): tube A was prepared by mixing 2 μg DNA of each receptor transfected into the mammalian cells, for a total of 4 μg DNA (e.g., pCMV vector; pCMV vector with mutated THSR (TSHR-A623I); TSHR-A623I and GPR24, etc.) in 1.2 ml serum free DMEM (Irvine Scientific, Irvine, Calif.); tube B was prepared by mixing 120 μl lipofectamine (Gibco BRL) in 1.2 ml serum free DMEM. Tubes A and B were then admixed by inversion (several times), followed by incubation at room temperature for 30–45 min. The admixture is referred to as the “transfection mixture”. Plated Hek-293 cells were washed with 1×PBS, followed by addition of 10 ml serum free DMEM. […]

For the next assay, the system named is GPR5. The assay is described as above. The arrangement: species or system human. The following applies: FIG. 2.
Description: as §1, §2, §3

For assay [2], the system named is GPR24. The experiment in a line: Intracellular IP3 accumulation assay (Gq-associated receptors). The class given is cell-based, human. The following applies: FIG. 4. The method, then: On day 1, cells comprising the receptors (endogenous and/or non-endogenous) can be plated onto 24 well plates, usually 1×10^5 cells/well (although this number can be optimized. On day 2 cells can be transfected by firstly mixing 0.25 μg DNA in 50 μL serum free DMEM/well and 2 μL lipofectamine in 50 μl serum-free DMEM/well. The solutions are gently mixed and incubated for 15–30 min at room temperature. Cells are washed with 0.5 ml PBS and 400 μl of serum free media is mixed with the transfection media and added to the cells. The cells are then incubated for 3–4 hrs at 37° C./5% CO2 and then the transfection media is removed and replaced with 1 ml/well of regular growth media. On day 3 the cells are labeled with ^3H-myo-inositol. Briefly, the media is removed and the cells are washed with 0.5 ml PBS. Then 0.5 ml inositol-free/serum free media (GIBCO BRL) is added/well with 0.25 μCi of ^3H-myo-inositol/well and the cells are incubated for 16–18 hrs o/n at 37° C./5% CO2. On Day 4 the cells are washed with 0.5 ml PBS and 0.45 ml of assay medium is added containing inositol-free/serum free media 10 μM pargyline 10 mM lithium chloride or 0.4 ml of assay medium and 50 μL of 10× ketanserin (ket) to final concentration of 10 μM. The cells are then incubated for 30 min at 37° C. […]

As to “GPR24 wt: endogenous human GPR24 (also known as MCH or SLC-1) receptor [reference compound]”, in the assay with GPR24 [1], the cAMP production came out at 336.5 pmol cAMP/well.
On to “GPR5 wt: endogenous target receptor GPR5”, for which, in the assay with GPR5 (cells co-transfected with TSHR-A623I, in the presence of TSH), the cAMP production worked out at 58.79 pmol cAMP/well. For the same molecule, the “decrease in production of cAMP against pCMV co-transfected with TSHR-A623I” value in the assay on GPR5 (reference pCMV + TSHR-A623I 106.75 pmol cAMP/well) was roughly 45%.
With “I261Q: non-endogenous version of the human GPR24 receptor with I261Q mutation (SEQ.ID.NO.:387)”, the “decrease in cAMP production compared to TSHR-A623I with endogenous GPR24 (GPR24 wt)” value in the assay with GPR24 [1] was roughly 27%. In addition, the “increase in IP3 accumulation compared to the endogenous version of GPR24 (GPR24 wt)” value in the assay with GPR24 [2] is on record as roughly 32%.

B1: 24-IC3-SST2: non-endogenous human GPR24 in which the IC3 loop is replaced with that of SST2 (SEQ.ID.NO.:359) (protein, listed as Homo sapiens)
chain: MDLEASLLPTGPNASNTSDGPDNLTSAGSPPRTGSISYINIIMPSVFGTICLLGIIGNSTVIFAVVKKSKLHWCNNVPDIFIINLSVVDLLFLLGMPFMIHQLMGNGVWHFGETMCTLITAMDANSQFTSTYILTAMAIDRYLATVHPISSTKFRKPSVATLVICLLWALSFISITPVWLYARLIPFPGGAVGCGIRLPNPDTDLYWFTLYQFFLAFALPFVVITAAYVRILQKVKSSGIRVGSSKRKKSEKKVTRTAIAICLVFFVCWAPYYVLQLTQLSISRPTLTFVYLYNAAISLGYANSCLNPFVYIVLCETFRKRLVLSVKPAAQGQLRAVSNAQTADEERTESKGTYFPCHPAHLQVRAPQHATGRDAEKNPRPLGKCRKAGLGVVAMKIHSMGSHVAGEAWSQVWGFQISEIPWGSRMRPLDRTEAEQENMLVWITGC
Take B1: in the assay on GPR24 [1], the cAMP production is reported as 262.266 pmol cAMP/well and the “decrease in cAMP production compared to TSHR-A623I with endogenous GPR24 (GPR24 wt)” value was roughly 22%. Also, the “increase in IP3 accumulation compared to the endogenous version of GPR24 (GPR24 wt)” value with GPR24 [2] is reported as roughly 27%.

(Values after patent US7097969B2, “Non-endogenous, constitutively activated known G protein-coupled receptors” (Arena Pharmaceuticals, Inc., priority 2000, dated 2006).)
